Results from patent publication US20160274087A1, “SCREENING ASSAY FOR AGENTS THAT INFLUENCE BETA CELL NUMBER AND/OR PHENOTYPE” (VRIJE UNIVERSITEIT BRUSSEL, priority 2013, published 2016).
Marks after values point to notes of the source that are not given here.

What was measured:
beta cells = assay: Immunohistochemical analysis of Ki67 in pancreas after dexamethasone injection; assay type: in vivo, rat; settings: DEX 1 mg/Kg BW daily for 5 days; data not shown
[1] = Metabolic effects of in vivo dexamethasone administration
[2] = tested on: selected gene targets in FACS-purified beta cells; assay: Q-PCR on FACS-purified beta cells from dexamethasone-injected rats; settings: 5 single injections DEX 1 mg/kg BW daily
Source text: Control rats were given vehicle (saline).
RNA was extracted using RNeasy columns (Qiagen), and quality was verified using an Agilent Bioanalyzer. Following removal of genomic DNA (TURBO DNA-free, Ambion) and reverse-transcription (High-Capacity cDNA Archive Kit, Applied Biosystems), gene targets were amplified on an ABI Prism 7700 using TaqMan Universal PCR Master Mix and TaqMan MGB probes (Applied Biosystems, assay IDs available on request). Expression levels of target genes were normalized to 4 housekeeping genes (β-actin, HPRT1, rplp2 and psmc5) (ΔCt) and expressed versus a control condition as calibrator (comparative ΔΔCt method).

rat beta cells [3] = assay: Beta cell DNA synthesis/proliferation by EdU (and BrdU) incorporation, incl. LOPAC screen; assay type: cell-based; settings: LOPAC screen at 1 μM, adult rat beta cells, EdU day 3 to 6
Method: (§1) On day 1, 9 and 15 of culture, total numbers of living beta cells per well were determined by semi-automatic cell count, after Hoechst 33342 (Ho) and propidium iodide (PI) staining. Numbers of living beta cells were obtained by subtracting the PI-positive cell numbers from the Ho-positive cell numbers, and correcting for the percent insulin-negative cells, as determined following insulin-immunofluorescence staining. They were expressed as percent of the numbers on day 1. Each condition was also evaluated for increases in the percentage of proliferating beta cells (incorporating the thymidine-analogue 5-ethynyl-2′-deoxyuridine, EdU; 100 μmol/l). To detect beta cells that underwent two successive cycles, cells were sequentially exposed to two different thymidine-analogs, first EdU from day 3 to 6, and then BrdU (100 μmol/l) from day 7 to 10, with a 24-hour label-free period in between. EdU-positive (EdU^+) nuclei were detected with the Click-iT Assay kit (Invitrogen), while BrdU-positive (BrdU^+) nuclei were identified with anti-BrdU antibody.
Freshly purified beta cells were cultured in control medium for 24 h prior to the addition of the LOPAC test compounds (day 1). The culture medium was refreshed on day 3 and the cells were then cultured further with 5-ethynyl-2′-deoxyuridine (EdU; 10 μM) up to day 6. Cell viability and percentage EdU incorporation were quantified after imaging and image analysis using the BD Pathway Bioimager, as described before (Assefa et al., 2014). To test the significance of compound effect on beta cell proliferation, average Z-score for each compound was calculated and a cut-off for potential positive hits was set at a Z-score of greater than three standard deviations. Thus, a compound is considered a hit only if it increases the percent EdU incorporation to above three standard deviation of the plate-averaged percent EdU incorporation.
Sorted beta cells were seeded in 384-well or 6-well plates coated with 804G matrix, and kept in culture for up to 15 days at 37° C. 5% CO2 using Ham F10 supplemented with 1 mM L-glutamine, 0.1 mg/ml streptomycin, 0.075 mg/ml penicillin, 50 μM of isobutyl-1-methylxanthine (IBMX) at 10 mM D-glucose with and without synthetic GCs (6 methyl-prednisolone (6MP), dexamethasone (DEX), GR-modulators (compound A (CPA), mifepristone (MIF), and NFκB inhibitors (JSH-23 en Bay11-7085). Total cell number and beta cell viability was evaluated after incubation with Hoechst 33342 and propidium iodide. All chemicals were from Sigma Life Sciences or Merck. Quantification of cell numbers and analysis of beta-cell viability was done using the Pathway Bioimager (BD Biosciences) and using IPlab and Attovision software for background subtraction as described prior (Assefa et al., 2014). Replicating beta cells were quantified after 24 or 72 hrs incubation with 5-ethynyl-2′-deoxyuridine (EdU, a thymidine analog) using the ClickIT EDU Alexa Fluor assay (Invitrogen). EdU-positive cells were expressed as percentage of total cell number.

rat beta cells [4] = assay: Beta cell viability / cell death (propidium iodide assay); assay type: cell-based; settings: LOPAC screen at 1 μM; adult rat beta cells; day 6; control medium 97
Source text: as §1, with “Numbers” for “On day 1, 9 and 15 of culture, total numbers of living beta cells per well were determined by semi-automatic cell count, after Hoechst 33342 (Ho) and propidium iodide (PI) staining. Numbers”, “Each condition was also evaluated for increases in the percentage of proliferating beta cells (incorporating the thymidine-analogue 5-ethynyl-2′-deoxyuridine, EdU; 100 μmol/l).” left out
Absolute number of cells was determined by whole-well imaging using the BD-PathwayBioimager855 (BD-Biosciences). IPLab and AttoVision software packages (BD-Biosciences) were used for image background subtraction, segmentation and quantification.
Freshly purified beta cells were cultured in control medium for 24 h prior to the addition of the LOPAC test compounds (day 1). The culture medium was refreshed on day 3 and the cells were then cultured further with 5-ethynyl-2′-deoxyuridine (EdU; 10 μM) up to day 6. […] Thus, a compound is considered a hit only if it increases the percent EdU incorporation to above three standard deviation of the plate-averaged percent EdU incorporation.

[5] = target: T1, glucocorticoid receptor (GR) (Homo sapiens, UniProt P04150); settings: cited from earlier work
T1 sequence (P04150 1-777): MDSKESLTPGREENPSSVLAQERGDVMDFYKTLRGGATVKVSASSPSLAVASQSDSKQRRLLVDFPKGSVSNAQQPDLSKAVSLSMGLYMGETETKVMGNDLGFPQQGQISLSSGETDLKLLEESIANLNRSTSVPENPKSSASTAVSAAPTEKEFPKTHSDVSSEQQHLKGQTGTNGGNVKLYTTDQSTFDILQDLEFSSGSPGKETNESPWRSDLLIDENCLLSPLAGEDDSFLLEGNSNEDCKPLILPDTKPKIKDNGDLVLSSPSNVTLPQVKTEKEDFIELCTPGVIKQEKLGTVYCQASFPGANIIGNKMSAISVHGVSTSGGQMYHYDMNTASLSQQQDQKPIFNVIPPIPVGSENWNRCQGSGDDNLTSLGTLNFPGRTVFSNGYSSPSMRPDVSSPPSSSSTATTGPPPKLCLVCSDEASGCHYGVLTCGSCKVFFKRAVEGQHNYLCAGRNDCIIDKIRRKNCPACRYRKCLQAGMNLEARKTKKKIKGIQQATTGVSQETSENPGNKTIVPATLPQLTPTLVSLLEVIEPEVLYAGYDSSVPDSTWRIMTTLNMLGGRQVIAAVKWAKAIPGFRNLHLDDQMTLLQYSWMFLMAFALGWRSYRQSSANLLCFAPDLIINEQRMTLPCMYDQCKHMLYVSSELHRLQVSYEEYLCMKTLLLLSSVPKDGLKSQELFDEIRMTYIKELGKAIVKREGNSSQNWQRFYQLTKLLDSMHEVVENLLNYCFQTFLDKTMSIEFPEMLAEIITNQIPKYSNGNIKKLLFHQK

**Q.** Which results are given for `C[C@@H]1C[C@H]2[C@@H]3CCC4=CC(=O)C=C[C@]4(C)[C@@]3(F)[C@@H](O)C[C@]2(C)[C@@]1(O)C(=O)CO` [DEX, dexamethasone]?
**A.** increase of the percentage beta cells positive for Ki67 (beta cells): 3 fold; loss of body weight ([1]; DEX 1 mg/Kg BW daily for 5 consecutive days): 20%; insulin content ([1]; DEX 1 mg/Kg BW daily for 5 days, MOCK 48 ± 7): 22 ± 3 ng/K beta cells; IPGT 90 min ([1]; DEX 1 mg/Kg BW daily for 5 days, MOCK 81 ± 3): 278 ± 44 mg/dL; IPGT 120 min ([1]; DEX 1 mg/Kg BW daily for 5 days, MOCK 82 ± 2): 227 ± 62 mg/dL; IPGT 60 min ([1]; DEX 1 mg/Kg BW daily for 5 days, MOCK 83 ± 5): 375 ± 54 mg/dL; Fasting glycemia ([1]; DEX 1 mg/Kg BW daily for 5 days, MOCK 85 ± 3): 169 ± 77 mg/dL; Islet insulin content ([1]; DEX 1 mg/Kg BW daily for 5 days, MOCK 100): 37 ** ng/islet; IPGT 30 min ([1]; DEX 1 mg/Kg BW daily for 5 days, MOCK 180 ± 14): 456 ± 41 mg/dL; IPGT 15 min ([1]; DEX 1 mg/Kg BW daily for 5 days, MOCK 360 ± 43): 497 ± 16 mg/dL; Serum insulin ([1]; DEX 1 mg/Kg BW daily for 5 days, MOCK 4927 ± 724): 8447 ± 472 pg/mL; Body weight Day 6 ([1]; DEX 1 mg/Kg BW daily i.p. for 5 days, MOCK 382 ± 13): 304 ± 11 g; Body weight Day 0 ([1]; DEX group before treatment, MOCK 356 ± 8): 363 ± 13 g; Cyclin B1 mRNA level (ΔΔCt values relative to control, adult male) [2]: 6.5 ± 2.5 ^3; Cyclin B2 mRNA level (ΔΔCt values relative to control, adult male) [2]: 10.8 ± 5.1 ^3; CyclinD1 mRNA level (ΔΔCt values relative to control, adult male) [2]: 0.9 ± 0.4 ^; DLK1 mRNA level (ΔΔCt values relative to control, adult male) [2]: 33.0 ± 19.1 ^3; FKBP5 mRNA level (ΔΔCt values relative to control, adult male) [2]: 2.4 ± 0.2 ^; ICAM1 mRNA level (ΔΔCt values relative to control, adult male) [2]: 0.1 ± 0.1 ^3; MafA mRNA level (ΔΔCt values relative to control, adult male) [2]: 0.3 ± 0.1 ^; MafB mRNA level (ΔΔCt values relative to control, adult male) [2]: 0.6 ± 0.2 ^; NPY mRNA level (ΔΔCt values relative to control, adult male) [2]: 3.3 ± 0.5 ^3; NR3C1 mRNA level (ΔΔCt values relative to control, adult male) [2]: 0.5 ± 0.1 ^2; Pdx1 mRNA level (ΔΔCt values relative to control, adult male) [2]: 0.4 ± 0.2 ^

**Q.** What does the source list for `C[C@]12C=CC(=O)C=C1CC[C@H]1[C@@H]3C[C@@H](O)[C@](O)(C(=O)CO)[C@@]3(C)C[C@H](O)[C@@]12F` [Triamcinolone]?
**A.** Percent EdU+ cells (rat beta cells [3]; control medium 5.6): 31.1%; Z-Score (rat beta cells [3]; hit cut-off three standard deviations): 5.9; Percent viable cells (rat beta cells [4]): 99%; Relative Potencies GR [5]: 5
